Legend:
[1] = Halkier and Møller, 1989; cited from earlier work

Row | SMILES | stability in aqueous solutions [1] | toxicity to microbial organisms compared with the aglycon vanillin (microbial organisms)
1 | N#CC(O)c1ccc(O)cc1 (centres unmarked) [p-hydroxymandelonitrile] | highly unstable | 
2 | COc1cc(C=O)ccc1O[C@@H]1O[C@H](CO)[C@@H](O)[C@H](O)[C@H]1O [vanillin glucoside, vanillin-β-D-glucoside] |  | much less toxic
